One block for each compound: values may come before it.
What was measured:
[1] = system: STAT (HEX) (DNA, G4) GGGCTGGGGATGGGGAGGGGG; test: microscale thermophoresis; settings: 10 mM KCl, 20 mM sodium phosphate; pH 7.4, 22 °C, DMSO and Tween 20; said to be submicromolar
[2] = system: 22CTA (DNA, G4) AGGGCTAGGGCTAGGGCTAGGG; test: FRET melting; settings: 10 mM KCl, 20 mM sodium phosphate, pH 7.4, 20 µM compound
[3] = system: 22AG (DNA, G4) AGGGTTAGGGTTAGGGTTAGGG; test: FRET melting; settings: 10 mM KCl, 20 mM sodium phosphate, pH 7.4, 20 µM compound; for binding: 1 µM DNA (legend of Figure 3 prints them reversed)
[4] = system: cMyc (DNA, G4) TGAGGGTGGGTAGGGTGGGTAA; test: FRET melting; settings: 10 mM KCl, 20 mM sodium phosphate; pH 7.4; 20 µM compound, 1 µM DNA
[5] = system: VEGF (DNA, G4) GGGAGGGTTGGGGTGGG; test: FRET melting; settings: 25 mM LiCl, 5 mM sodium phosphate; pH 7.4; 20 µM compound, 1 µM DNA
[6] = system: BclT (DNA, G4) GGGGGCCGTGGGGTGTGAGCTGGGG; test: FRET melting; settings: 10 mM KCl, 20 mM sodium phosphate; pH 7.4; 20 µM compound, 1 µM DNA
[7] = system: STAT (DNA, G4) GGGCTGGGGATGGGGAGGGGG; test: FRET melting; settings: 10 mM KCl, 20 mM sodium phosphate; pH 7.4; 20 µM compound, 1 µM DNA
[8] = system: Ct1 (DNA, G4) GGTGACAGGGGTATGGGGAGGGG; test: FRET melting; settings: 10 mM KCl, 20 mM sodium phosphate; pH 7.4; 20 µM compound, 1 µM DNA
[9] = system: cKit1 (DNA, G4) GGGAGGGCGCTGGGAGGAGGG; test: FRET melting; settings: 10 mM KCl, 20 mM sodium phosphate; pH 7.4; 20 µM compound, 1 µM DNA
[10] = system: Hair (DNA, hairpin) GTATAGCTATTTTTATAGCTATA; test: FRET melting; settings: 10 mM KCl, 20 mM sodium phosphate; pH 7.4; 20 µM compound, 1 µM DNA
[11] = system: cKit1 (HEX) (DNA, G4) GGGAGGGCGCTGGGAGGAGGG; test: microscale thermophoresis; settings: 10 mM KCl, 20 mM sodium phosphate; pH 7.4, 22 °C, DMSO and Tween 20; said to be submicromolar

Structure (SMILES): CN(C)CCNC(=O)COc1ccc2c(c1)nc1ccn(CC(=O)NCCN(C)C)c(=O)n12
Kd [1]: 0.4 µM

Structure (SMILES): N=C(N)NCCNC(=O)COc1cc2nc3ccn(CC(=O)NCCNC(=N)N)c(=O)n3c2c2ccccc12
binding [3]: yes

Structure (SMILES): NCCNC(=O)Cn1ccc2nc3cc(O)c4ccccc4c3n2c1=O
Kd [11]: 0.6 µM | Kd [1]: 0.5 µM

Second part, the compound after the results:

ΔTm ([2]; 1 µM DNA): 1 ± 2 °C | ΔTm ([3]; 1 µM DNA): 1 ± 2 °C | ΔTm [4]: 1 ± 2 °C | ΔTm [5]: 1 ± 2 °C | ΔTm [6]: 0 ± 2 °C | ΔTm [7]: 1 ± 2 °C | ΔTm [8]: 2 ± 2 °C | ΔTm [9]: 3 ± 2 °C | ΔTm [10]: -1 ± 2 °C
Structure (SMILES): NCCNC(=O)Cn1ccc2nc3cc(O)ccc3n2c1=O

binding ([2]; 1 µM DNA (legend of Figure 3 prints them reversed)): yes | Kd [11]: 0.5 µM | binding [3]: yes
Structure (SMILES): NCCNC(=O)COc1cc2nc3ccn(CC(=O)NCCN)c(=O)n3c2c2ccccc12
